2 compounds from publication PMC5429621 (Scientific Reports, 2017) can be followed below.

Molecules are shown by their SMILES. Residue numbers refer to the chain shown, from its start.

One test concerns the target T1, hP2X7-2Nβ receptor (Homo sapiens, UniProt Q99572, I21V/M24R/N16P/N25R/Q22R/R20V/S23N/T19I/Y26L).
T1 construct: expressed in transfected cells; host or cells: Xenopus laevis oocytes (cRNA injected)
T1 sequence (Q99572 1-595 N16P/T19I/R20V/I21V/Q22R/S23N/M24R/N25R/Y26L): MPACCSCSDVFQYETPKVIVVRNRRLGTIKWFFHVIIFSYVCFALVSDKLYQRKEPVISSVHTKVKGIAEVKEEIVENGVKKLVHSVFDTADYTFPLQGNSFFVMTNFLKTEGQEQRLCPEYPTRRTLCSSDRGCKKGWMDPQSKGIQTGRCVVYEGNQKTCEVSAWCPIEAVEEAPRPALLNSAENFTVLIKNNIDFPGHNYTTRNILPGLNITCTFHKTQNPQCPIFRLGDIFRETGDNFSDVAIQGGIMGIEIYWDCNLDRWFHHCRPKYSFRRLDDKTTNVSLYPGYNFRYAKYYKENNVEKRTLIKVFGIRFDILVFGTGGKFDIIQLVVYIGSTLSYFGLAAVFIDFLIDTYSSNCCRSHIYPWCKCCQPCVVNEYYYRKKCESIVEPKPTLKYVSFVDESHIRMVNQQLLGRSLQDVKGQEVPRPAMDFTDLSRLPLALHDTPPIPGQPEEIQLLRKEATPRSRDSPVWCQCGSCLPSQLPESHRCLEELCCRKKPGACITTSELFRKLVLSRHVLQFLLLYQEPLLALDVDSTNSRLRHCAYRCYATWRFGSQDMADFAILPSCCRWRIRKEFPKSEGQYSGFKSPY
The test can be described thus: two-electrode voltage clamp, Xenopus oocytes. The settings on record: P2X7-2Nβ. Type of test: cell-based. The method, then: (§1) P2XR constructs were transcribed to produce sense-strand cRNA (mMessage mMachine, Ambion, Austin, TX). Manually defoliculated stage V Xenopus laevis oocytes were injected with 50 nl (50 ng) of cRNA using an Inject + Matic microinjector (J.A. Gaby, InjectMatic, Geneva, Switzerland) and stored at 16 °C in ND96 buffer (in mM, NaCl 96, KCl 2, CaCl2 1.8, MgCl2 1, sodium pyruvate 5, HEPES 5 (pH 7.6) supplemented with 50 µg/ml gentamycin and 50 µg/ml tetracycline). For electrophysiological recordings (3–7 days post-injection) oocytes were bathed in divalent free ND96 buffer (in mM, NaCl 96, KCl 2, sodium pyruvate 5, HEPES 5 and 0.1 flufenamic acid, pH 7.6).
(§2) ATP (sodium salt, Sigma) was applied via a U-tube perfusion system for 3 s at 3–5 minute intervals to allow reproducible responses to be recorded. […] To standardize for any change in ATP sensitivity at mutant receptors antagonists were co-applied with an EC90 concentration of ATP.
(§3) Concentration response curves were normalized to the maximal response and fitted with the Hill equation (variable slope) with GraphPad Prism 6 (Graphpad software, San Diego, CA). […] Individual concentration response curves were generated for individual experiments and statistical analysis was carried out on the data generated. In the figures the inhibition curves are fitted to the mean normalized data. Any significant differences were calculated by one-way analysis of variance, followed by Bonferroni’s test (using GraphPad Prism 6). Data are shown as mean ± SEM.

The target of test [1] is T2, hP2X7-2Nβ/P2X1 chimera 81–94 (Homo sapiens, UniProt Q99572, F88W/H85P/I21V/K81P/K82G/M24R/N16P/N25R/Q22R/R20V/S23N/S86Q/T19I/T90V/T94V/V84G/Y26L).
T2 construct: expressed in transfected cells; host or cells: Xenopus laevis oocytes (cRNA injected)
T2 sequence (Q99572 1-595 N16P/T19I/R20V/I21V/Q22R/S23N/M24R/N25R/Y26L/K81P/K82G/V84G/H85P/S86Q/F88W/T90V/T94V): T1 sequence (Q99572 1-595 N16P/T19I/R20V/I21V/Q22R/S23N/M24R/N25R/Y26L) with K81P, K82G, V84G, H85P, S86Q, F88W, T90V, T94V
The test can be described thus: two-electrode voltage clamp, Xenopus oocytes. Type of test: cell-based. The following applies: 81–94 chimera.
From the text: The hP2X1R was a gift from Dr Lin-Hua Jiang (University of Leeds, UK) and the hP2X1R cDNA has been described previously. Chimeras were generated by megaprimer-mediated domain swapping. In addition to chimeras, point mutations, deletions and insertions were made using the QuikChange (Stratagene) or Q5 (New England Bioscience) mutagenesis kits. The production of the correct mutations and absence of coding errors was verified by DNA sequencing (Automated ABI Sequencing Service, University of Leicester, UK).
as §1, §2, §3
(In two-electrode clamp one electrode senses voltage and the other passes current.)

Consider `Nc1ncnc2c1ncn2[C@@H]1O[C@H](COP(=O)(O)OP(=O)(O)OP(=O)(O)O)[C@@H](O)[C@H]1O` [ATP], for which the figures for the Peak amplitude (on hP2X7-2Nβ receptor (maximal ATP); in test [1] (maximal ATP)) were 2.69 ± 0.19 μA and 0.76 ± 0.13 μA, respectively.
Consider `Cl.Cl.O=C(CC12CC3CC(CC(C3)C1)C2)Nc1cccc2nc(NCCNCCO)ccc12` [AZ10606120, N-[2-[[2-[(2-Hydroxyethyl)amino]ethyl]amino]-5-quinolinyl]-2-tricyclo[3.3.1.13,7]dec-1-ylacetamide dihydrochloride], for which the “Hill slope of AZ10606120 inhibition” value at hP2X7-2Nβ receptor (EC90 ATP) stood at 1.7 ± 0.24. Further, the “% Inhibition with 30 nm AZ10606120” value at hP2X7-2Nβ receptor (response to EC90 ATP) is recorded as ~ 70%. Besides, the “peak current to ATP, % of the control response” value in test [1] (in the presence of 3 µM AZ10606120) turned out to be 53.6 ± 2.6%.
